{"source": "patent US12357601B2", "about": "“Composition for inhibiting growth of bacterium having menaquinone synthesis pathway through futalosine or futalosine derivative” (NOSTER INC., priority 2017, dated 2025)", "key": {"[1]": {"tested_on": "Helicobacter pylori SS1 strain, TN2GF4 strain, ATCC43579 strain, NCTC11637 strain, TY281 strain, TY1345 strain", "experiment": "Proliferation inhibitory effect (in vitro), static culture 3 days, colony count", "assay_type": "cell-based", "details": "fatty acid 200 μM or 1000 μM, 3 days; six strains; compared with linoleic acid", "protocol": "Helicobacter pylori SS1 strain, TN2GF4 strain, ATCC43579 strain, NCTC11637 strain, TY281 strain, TY1345 strain were each inoculated to a 6-well plate containing 3 mL of a liquid medium (Brucella broth added with 10% FCS), and fatty acid (200 μM or 1000 μM) and menaquinone (MK-4) 100 μg/mL were added. After static culture for 3 days at temperature 37° C., microaerobic conditions (5% 02, 10% 002, 85% N2), the culture medium was applied on a Helicobacter agar plate, cultured for 3 days and the resulting colonies were counted (FIG. 1-1 A: SS1 strain, FIG. 1-2 B: TN2GF4 strain, FIG. 1-3 C: ATCC43579 strain, FIG. 1-4 D: NCTC11637 strain, FIG. 1-5 E: TY281 strain, FIG. 1-6 F: TY1345 strain. Item C: control (no addition), Item 1: HYA addition, Item 2: HYA and menaquinone addition, Item 3: linoleic acid addition, Item 4: linoleic acid and menaquinone addition)."}, "[2]": {"tested_on": "Campylobacter jejuni ATCC33560 strain", "experiment": "Proliferation inhibitory effect (in vitro) on Campylobacter jejuni, absorbance and colony count", "assay_type": "cell-based", "details": "100, 200, 400 μM, 24 hr; concentration dependent; strong compared to linoleic acid"}, "[3]": {"tested_on": "Helicobacter suis TKY strain or SNTW101 strain", "experiment": "Proliferation inhibitory effect (in vivo) of HYA on Helicobacter suis, real-time PCR quantification, 2 weeks after infection", "design": "species or system C57BL/6 female mouse", "details": "200 μM in water from one week before infection; 2 weeks later", "protocol": "A 5-week-old C57BL/6 female mouse was orally infected 3 times with Helicobacter pylori SS1 strain or TN2GF4 strain (1-5×10^8 CFU) every other day and dissected at 2 weeks from the final infection day, and the number of bacteria in the gastric mucosa was counted. Water added with HYA or linoleic acid (200 μM) was given to the mice from 1 week before infection (FIG. 4-1 A: SS1 strain, FIG. 4-2 B: TN2GF4 strain). A 5-week-old C57BL/6 female mouse was orally infected only once with a stomach suspension of Helicobacter suis TKY strain or SNTW101 strain-infected mouse and dissected 2 weeks later, and the number of bacteria in the gastric mucosa was counted. Water added with HYA (200 μM) was given to the mouse from one week before the infection (FIG. 4-3 C). […]\nDNA was prepared from a part of the stomach tissue by using DNeasy Blood & Tissue Kit (Qiagen) and real-time PCR (model: CFX96 (Bio-Rad)) was performed. As the primer for Helicobacter suis quantification, the following was used by reference to Diagn. […]\nThe following were used as the primers for β-actin quantification of the mouse by reference to J. Clin. Microbiol. […]\nFor quantification by real-time PCR, iQ™ SYBR Green Supermix was used. […]\nThereafter, the temperature was increased by 0.5° C. every seconds from 65° C. to 95° C. and the fluorescence was measured. […]"}, "Ki-67 positive cells": {"tested_on": "Ki-67 positive cells", "experiment": "Gastric MALT lymphoma model: Ki-67 positive cells in lymphoid follicle (immunostaining)", "assay_type": "in vivo, C57BL/6 female mouse", "details": "200 μM in water; 6 months after infection with Helicobacter suis TKY strain", "protocol": "Helicobacter suis is suspected to be the cause of the onset of gastric MALT lymphoma. A 5-week-old C57BL/6 female mouse was orally infected only once with a stomach suspension of Helicobacter suis TKY strain-infected mouse and dissected 6 months after the infection, and the number of bacteria in the gastric mucosa was counted according to the method described in Example 5. Water added with HYA (200 μM) was given to the mouse from one week before the infection.\nKi-67 is known as a marker for cell proliferation and cell cycle. Proliferated cells in a tumor tissue were detected by immunostaining with anti-Ki-67 antibody. A part of the stomach was fixed with 10% neutral formalin buffer to prepare a paraffin block, serial sections were cut out using a microtome and Hematoxylin Eosin (HE) staining was performed. Ki-67 (Clone SP6) rabbit monoclonal antibody (Thermo Fisher Scientific Inc.) diluted 1:300 was used as a dilution antibody, Histofine Simple Stain mouse MAX-PO® (NICHIREI BIOSCIENCES INC., Code: 414341) DAB staining (DAKO Inc.) was used as a secondary antibody, and Hematoxylin was used for comparison staining. As the negative control, rabbit IgG antibody (Code No. X 0936 Lot 050 (DAKO Inc.)) was used. […]"}, "[4]": {"tested_on": "Helicobacter pylori TK1029 strain", "experiment": "Proliferation inhibitory effect (in vitro) by ED50 measurement, viable count", "assay_type": "cell-based", "protocol": "Helicobacter pylori TK1029 strain (clinical isolate) was cultured in Brucella broth containing 10% FCS and 1×10^6 CFU of bacteria were respectively added to 3 mL of Brain-Heart Infusion Broth (BHI) media (previously added with free fatty acid (stearic acid, oleic acid, linoleic acid, ricinoleic acid, HYA) at 0, 0.5, 5, 50, 500 μg/mL) containing 2% FCS in a 6-well plate. Shaking culture was performed under conditions of temperature 37° C., humidity 100%, microaerobic (5% 02, 10% CO2, 85% N2), the culture medium (0.1 mL) from each well was applied to NISSUI plate, Helicobacter agar medium 15 hr and 25 hr later, and the number of colonies formed after microaerobic culture for 3 days was counted."}}}
{"smiles": "CCCCC/C=C\\CC(O)CCCCCCCCC(=O)O", "note": "(stereo not drawn) [HYA, 10-hydroxy-cis-12-octadecenoic acid]", "values": [{"measurement": "proliferation of Helicobacter pylori (colony count)", "setting": "[1]", "result": "suppressed proliferation"}, {"measurement": "proliferation of Campylobacter jejuni ATCC33560 strain", "setting": "[2]", "result": "inhibited proliferation"}, {"measurement": "proliferation of Helicobacter suis TKY strain, SNTW101 strain (number of bacteria in gastric mucosa)", "setting": "[3]", "result": "inhibited proliferation"}, {"measurement": "increase in the number of Ki-67 positive cells, compared to the non-administration group", "setting": "Ki-67 positive cells", "result": "significantly suppressed"}, {"measurement": "ED50 value times lower than that of ricinoleic acid", "setting": "[4]; 15 hr after culturing", "result": "about 10 times"}, {"measurement": "ED50 value, 15 hr later", "setting": "[4]; 15 hr shaking culture, BHI 2% FCS, viable count", "result": 0.5, "unit": "µg/mL"}, {"measurement": "ED50 values compared with the other fatty acids", "setting": "[4]; 25 hr after culturing", "result": "remarkably lower than or the same level as"}, {"measurement": "ED50 value, 25 hr later", "setting": "[4]; 25 hr shaking culture, BHI 2% FCS, viable count", "result": 0.5, "unit": "µg/mL"}]}
